The text below walks through data of US8658565B2 (priority 2010, dated 2014).

Like-named read-outs stand apart in the source and are kept apart here.

What all share (type): in vivo
The subject of assay [1] is Alternaria solani. The assay is described as follows: Alternaria test (tomatoes)/preventive, Example D: (I-1) sprayed first, biological control agent 4 h later. The following applies: (I-1) alone 25 ppm a.i., evaluated 3 days after inoculation. As for the experimental part:
(§1) To produce a suitable preparation of active compound, 1 part by weight of the dithiino-tetracarboximide is mixed with 24.5 parts by weight of acetone, 24.5 parts by weight of dimethylacetamide and 1 part by weight of emulsifier alkylaryl polyglycol ether. The concentrate is diluted with water to the desired concentration.
Shemer, a water dispersible granule formulation containing the yeast Metschnikowia fructicola, is mixed and diluted with water to the desired concentration.
Young plants are sprayed with the preparation of (I-1) 2,6-dimethyl-1H,5H-[1,4]diithiino[2,3-c:5,6-c′]dipyrrole-1,3,5,7(2H,6H)-tetrone at the stated rate of application. 4 hours later and after the spray coating has dried on, the plants are sprayed with the aqueous preparation of the biological control agents, e.g. Shemer, at the stated rate of application. The next day the plants are inoculated with an aqueous spore suspension of Alternaria solani. The plants are then placed in an incubation cabinet at approximately 20° C. and a relative atmospheric humidity of 100%. The test is evaluated 3 days after the inoculation. 0% means an efficacy which corresponds to that of the untreated control while an efficacy of 100% means that no disease is observed.

The test system of assay [2] is Venturia inaequalis. In words: Venturia test (apples)/preventive, Example G: biological control agent sprayed first, (I-1) 4 h later. The following applies: (I-1) alone 12.5 ppm a.i., evaluated 10 days after inoculation. As for the experimental part: as §1
(§2) Serenade® WPO, a wettable powder formulation containing the bacteria Bacillus subtilis (variety QST 713), is mixed and diluted with water to the desired concentration.
Young plants are sprayed with the aqueous preparation of the biological control agents, e.g. Serenade® WPO, at the stated rate of application. 4 hours later and after the spray coating has dried on, the plants are sprayed with the preparation of (I-1) 2,6-dimethyl-1H,5H-[1,4]dithiino[2,3-c:5,6-c′]dipyrrole-1,3,5,7(2H,6H)-tetrone at the stated rate of application. The next day the plants are inoculated with an aqueous conidia suspension of the causal agent of apple scab (Venturia inaequalis) and then remain for 1 day in an incubation cabinet at approximately 20° C. and a relative atmospheric humidity of 100%. The plants are then placed in a greenhouse at approximately 21° C. and a relative atmospheric humidity of approximately 90%. The test is evaluated 10 days after the inoculation. […]

Assay [3] concerns Phytophthora infestans. The following applies: tomatoes; (I-1) alone 50 ppm a.i.; evaluated 3 days after inoculation.
Assay [4] deals with Venturia inaequalis. The assay is described as follows: Venturia test (apples)/preventive, Example C: (I-1) sprayed first, biological control agent 4 h later. The following applies: (I-1) alone 25 ppm a.i., evaluated 10 days after inoculation. As for the experimental part:
as §1, §2
Young plants are sprayed with the preparation of (I-1) 2,6-dimethyl-1H,5H-[1,4]dithiino[…]dipyrrole-1,3,5,7(2H,6H)-tetrone at the stated rate of application. 4 hours later and after the spray coating has dried on, the plants are sprayed with the aqueous preparation of the biological control agents, e.g. Serenade® WPO, at the stated rate of application. The next day the plants are inoculated with an aqueous conidia suspension of the causal agent of apple scab (Venturia inaequalis) and then remain for 1 day in an incubation cabinet at approximately 20° C. and a relative atmospheric humidity of 100%. The plants are then placed in a greenhouse at approximately 21° C. and a relative atmospheric humidity of approximately 90%. The test is evaluated 10 days after the inoculation. […]

For another assay, the system named is Sphaerotheca fidiginea. The assay is described as follows: Sphaerotheca test (cucumbers)/preventive, Example B: (I-1) sprayed first, biological control agent 4 h later. The following applies: (I-1) alone 50 ppm a.i., evaluated 7 days after inoculation. As for the experimental part: as §1, §2
Young plants are sprayed with the preparation of (I-1) 2,6-dimethyl-1H,5H-[1,4]dithiino[…]dipyrrole-1,3,5,7(2H,6H)-tetrone at the stated rate of application. 4 hours later and after the spray coating has dried on, the plants are sprayed with the aqueous preparation of the biological control agents, e.g. Serenade® WPO, at the stated rate of application. The next day the plants are inoculated with an aqueous spore suspension of Sphaerotheca fidiginea. The plants are then placed in a greenhouse at approximately 23° C. and a relative atmospheric humidity of approximately 70%. The test is evaluated 7 days after the inoculation. 0% means an efficacy which corresponds to that of the untreated control, while an efficacy of 100% means that no disease is observed.

In another assay the test system is Botrytis cinerea. The assay is described as follows: Botrytis test (beans)/preventive, Example I: biological control agent sprayed first, (I-1) 4 h later. The following applies: (I-1) alone 12.5 ppm a.i., lesion size evaluated 2 days after inoculation. As for the experimental part: as §1
BioNem WP®, a wettable powder formulation containing the bacteria Bacillus firmus, is mixed and diluted with water to the desired concentration.
Young plants are sprayed with the aqueous preparation of the biological control agents, e.g. BioNem WP®, at the stated rate of application. 4 hours later and after the spray coating has dried on, the plants are sprayed with the preparation of (I-1) 2,6-dimethyl-1H,5H-[1,4]dithiino[2,3-c:5,6-c′]dipyrrole-1,3,5,7(2H,6H)-tetrone at the stated rate of application. The next day the plants are inoculated by placing 2 small pieces of agar covered with growth of Botrytis cinerea on each leaf. The inoculated plants are placed in a darkened chamber at 20° C. and a relative atmospheric humidity of 100%. 2 days after the inoculation, the size of the lesions on the leaves is evaluated. 0% means an efficacy which corresponds to that of the untreated control, while an efficacy of 100% means that no disease is observed.

Assay [5] has as its system Alternaria solani. The assay is described as follows: Alternaria test (tomatoes)/preventive, Example H: biological control agent sprayed first, (I-1) 4 h later. The following applies: (I-1) alone 25 ppm a.i., evaluated 3 days after inoculation. As for the experimental part:
as §1, §2
Young plants are sprayed with the aqueous preparation of the biological control agents, e.g. Serenade® WPO, at the stated rate of application. 4 hours later and after the spray coating has dried on, the plants are sprayed with the preparation of (I-1) 2,6-dimethyl-1H,5H-[1,4]dithiino[2,3-c:5,6-c′]dipyrrole-1,3,5,7(2H,6H)-tetrone at the stated rate of application. The next day the plants are inoculated with an aqueous spore suspension of Alternaria solani. The plants are then placed in an incubation cabinet at approximately 20° C. and a relative atmospheric humidity of 100%. The test is evaluated 3 days after the inoculation. 0% means an efficacy which corresponds to that of the untreated control while an efficacy of 100% means that no disease is observed.

For a further assay, the system named is Sphaerotheca fuliginea. The assay is described as follows: Sphaerotheca test (cucumbers)/preventive, Example F: biological control agent sprayed first, (I-1) 4 h later. The following applies: (I-1) alone 50 ppm a.i., evaluated 7 days after inoculation. As for the experimental part: as §1, §2
Young plants are sprayed with the aqueous preparation of the biological control agents, e.g. Serenade® WPO, at the stated rate of application. 4 hours later and after the spray coating has dried on, the plants are sprayed with the preparation of (I-1) 2,6-dimethyl-1H,5H-[1,4]dithiino[2,3-c:5,6-c′]dipyrrole-1,3,5,7(2H,6H)-tetrone at the stated rate of application. The next day the plants are inoculated with an aqueous spore suspension of Sphaerotheca fuliginea. The plants are then placed in a greenhouse at approximately 23° C. and a relative atmospheric humidity of approximately 70%. The test is evaluated 7 days after the inoculation. 0% means an efficacy which corresponds to that of the untreated control, while an efficacy of 100% means that no disease is observed.

The subject of assay [6] is Phytophthora infestans. The following applies: tomatoes, evaluated 3 days after inoculation.

On to `Cn1c(=O)c2sc3c(=O)n(C)c(=O)c3sc2c1=O` [(I-1), 2,6-dimethyl-1H,5H-[1,4]dithiino[2,3-c:5,6-c′]dipyrrole-1,3,5,7(2H,6H)-tetrone], for which the “Efficacy in % found” value in the assay with Alternaria solani [1] amounted to 35%; with Venturia inaequalis [2] it was 48%; with Phytophthora infestans [3] it was 84%; in the assay on Venturia inaequalis [4] it was 49%; in the assay with Sphaerotheca fidiginea, 0%; in the assay with Botrytis cinerea it was 4%. In addition, the “Efficacy in % found” value stood at 21% with Alternaria solani [5], 0% in the assay with Sphaerotheca fuliginea, 15% with Phytophthora infestans [6] ((I-1) alone 12.5 ppm a.i.) and 40% with Phytophthora infestans [6] ((I-1) alone 25 ppm a.i.).
